Measurements as given in US12629390B2, “Stabilized amorphous calcium carbonate for treatment of neurological, muscular and infertility diseases or conditions” (AMORPHICAL LTD., priority 2016, dated 2026).

Assays:
[1] = system: spinal cord-dorsal root ganglia (SC-DRG) slices; test: nerve fiber sprouting from SC-DRG co-cultures; type: cell-based, rat; details: after 4 days of cultivation, portion of explants (out of 6)
Description: Neural and Vascular Reconstruction Gel ([…] Labs proprietary) is composed of two main components: high molecular hyaluronic acid (HA, 3×10^6 Da, BTG, Israel) and laminin (Sigma). […] The gel has the texture of a viscous liquid, it adheres easily and successfully the embedded cells or explants to the plastic or glass substratum, and enabled nerve fiber outgrowth in a 3D pattern. All the experiments were carried out and authorized by the local ethics committee recognized by the Israeli authorities for animal experimentation. Stationary organotypic cultures of dorsal root ganglia (DRG) and spinal cord (SC) as well as cultures of dissociated brain cells were prepared from rat fetuses (15 days of gestation, Lewis inbred, Harlan, Israel). Immediately after dissection, the isolated tissues were cut with a […] tissue chopper into small slices (of 400 μm thickness). In these studies, two tissue culture strategies were used. […] In the second method, the tissue slices were further dissociated with a trypsin-EDTA solution for 30 min, and washed with a culture medium. Subsequently, the dissociated cells were added to a suspension of chitosan powder or gastrolith powder (micro carriers, MCs) and incubated in suspension at 37° C. for 4 days. […] Calcium source were as following: ACC-Etidronic Acid (ACC-ET) (fresh suspension); ACC-Phosphoserine (ACC-PS) (fresh suspension); Gastrolith (dissolved with 0.1 M HCl and then neutralized with NaOH 1M); gastrolith powder; […] The cultures were monitored by daily phase contrast microscopic observations starting from 24 hours after setting the cultures onward. Suspensions of fresh ACC preparations consisted of particles forming a stable suspension. The gastrolith is a natural ACC isolated from crabs, and can be purchased only as a dry powder. In this form, its other characteristic components (such as calcium ions and proteins) are not available to the cells. In order to increase their bioavailability, the gastrolith powder was dissolved in 0.1 M HCl (which mimics the acidity which exists in the stomach) and then neutralized with 1M NaOH. […] The specimens were then incubated with rabbit anti-neurofilament antibodies (NF, Novus Biologicals, 1:500) to visualize the neurite outgrowth. […] Finally, the samples were rinsed again with wash buffer, and mounted with mounting medium (Immco Diagnostic, USA).

mice embryos = test: in vitro embryo development in Quinn's Advantage cleavage media; type: cell-based
Description: CBA male mice were bred with BL C57 female mice. The mice were kept on a 12 hours photoperiod schedule with unlimited water and food supply. About 6 to 8 weeks after receiving offspring, each female mouse was injected IP with 5IU of pregnant mare serum gonadotropin (PMSG).
After 48 hours each female mouse was injected IP with 5IU human chorionic gonadotropin (hCG). Male mice proven to be fertile were then put together with the superovulated females. The next morning the female mice were examined for the presence of copulatory plugs. Females that had copulatory plugs were euthanized after 24 hours (approximately 36 hours post-coitus) and embryos at 2 cell stage were retrieved from the oviducts as following: the oviducts were dissected in Quinn's Advantage cleavage media (SAGE, Origio, Denmark) and the embryos were transferred to 20 μL drops with Quinn's Advantage cleavage media (SAGE, Origio, Denmark) overlaid with mineral oil and cultured at 37.0° C. under 5% CO2 and atmospheric oxygen. The collected embryos continued to grow, i.e. in-vitro culture (IVC), until blastocyst/hatching stage. To test the effect of amorphous calcium carbonate, the Quinn's Advantage cleavage media (“cleavage media” hereinafter) was supplemented with different additives, i.e. amorphous calcium carbonate stabilized by polyphosphate (ACC-PP), crystalline calcium carbonate (CCC), polyphosphate (PP), phosphoserine (PS) or sodium carbonate ([…]). All supplements were added as a freshly prepared suspension; the preparation of the ACC supplements were performed under aseptic conditions. Untreated cleavage media (without addition of any additive) was used as a control (identified as Cont Q). The embryos were evaluated every day by microscope observation for a detection of the following stages: 2 cells, compactions stage, blastocysts formation and hatching stage. The fraction (in percent) of the embryos reached each stage was calculated (the number of 2 cells embryos was set as 100%).

[2] = system: healthy skeletal muscle cultures; test: myotube formation and contraction in healthy skeletal muscle cultures; type: cell-based, rat; details: added at 1 mM (final Ca2+ 2 mM)
Description: Stationary skeletal muscle cultures were prepared from healthy 1 day new born rat (Sprague Dawley, Harlan, Israel). The muscle tissue was dissected from posterior legs and was thoroughly minced. Digestion was performed with Trypsin-EDTA while gentle trituration. After 30 min the supernatant, containing dissociated cells, was collected and a fresh Trypsin-EDTA was added. This procedure was repeated two more times. Then, all supernatants were pooled, centrifuged, and the cell pellet was re-suspended in Proliferation Medium. Cells were seeded in a Gelatin coated 12 wells culture plates, 1×10^5 cells/well containing 1 mL of Proliferation Medium. Two days later, the medium was changed to Fusion Medium, which was then changed twice a week. The cultures were monitored by daily phase contrast microscopic observations from 24 hours after setting the cultures and onward.
Stock solution of 1% porcine gelatin in water, was sterilized by autoclave. Once cooled, 500 μl of the solution were added to each well of the 12-wells culture plat. After incubation for 20 min at room temperature, the excess solution was removed, and the cells were seeded.
For the proliferation stage, cells were cultured in: DMEM/F12 (containing 1 mM Ca^2+) +10% FBS, 25 μg/mL Gentamycin, and 2 mM L-Glutamine.
For the fusion stage the Proliferation Medium was changed with Fusion Medium, which was prepared as following: DMEM/F12 (containing 1 mM Ca2+), 2% horse serum (HS), 2 mM L-Glutamine, 25 μg/mL Gentamycin, and 4 units/100 mL Insulin (all purchased from Biological-Industries, Israel).
Control cultures were grown without further added calcium, or cultures enriched with free (soluble) stabilizer. The experiment was blinded by marking the various calcium preparations with arbitrary numerals only.
The components were added in one of the following ways: (i) aqueous suspensions of dry material; (ii) aqueous suspension of fresh material (before drying), or (iii) dissolved with HCl (to mimic the acidity which exists in the stomach. After dissolving was accomplished, the formed solutions were neutralized with 1M NaOH).

mdx mice = test: serum creatinine kinase (CK) levels in mdx mice given calcium supplements orally; type: in vivo; details: 12 weeks
Text: Experimental mice were administrated orally (by feeding or drinking) with control or test items. The control or test items were repeatedly administered daily until the study termination (after 12 weeks).
Animals were administrated with ACC by food or by drinking. Animals were administrated with CCC by food. Control was administrated by feeding. The control or test items were repeatedly administered daily until study termination.
At study termination blood sample was drawn from all animals under light anesthesia with Ketmaine/Xylazine, directly from the retro orbital sinus.
200 μl blood were collected into a yellow-cup tube with clotting activator gel. The tubes were kept at room temperature for at least 30 minutes for clotting and centrifuged at room temperature for 10 minutes at 4000 RPM. The serum samples are stored at 2-4° C. until delivered to CK analysis at A.M.L labs.

sperm = details: addition to calcium-free mediums; Bhoumik et al. 2014; cited from earlier work
[3] = Example 13, mice 3-7 pooled embryos, 1.6 mM in cleavage media
[4] = Example 14, pooled embryos, 1.6 mM in cleavage media
[5] = Example 16, pooled embryos, 1.7 mM in cleavage media
[6] = Example 15, pooled embryos, 3.3 mM in cleavage media
[7] = Example 17, mouse 1 sibling embryos, 1.7 mM in cleavage media
[8] = Example 17, mice 3-6 pooled embryos, 1.7 mM in cleavage media
[9] = Example 17, mouse 2 sibling embryos, 1.7 mM in cleavage media

CC(O)(P(=O)(O)O)P(=O)(O)O [ET, Etidronic Acid]
Cultures with axonal regeneration (%) ([1]; stabilizer alone at 0.05%): 33.3%

polyphosphate [PP]
8 cell/d2: number of embryos (mice embryos; [3]): 9
Blast/d3: number of embryos (mice embryos; [3]): 20
Blast/d3: portion of the initial number of embryos (mice embryos; [3]): 54.1%
Hatch/d4: number of embryos (mice embryos; [3]): 17
Hatch/d4: portion of the initial number of embryos (mice embryos; [3]): 45.9%
comp/d2: number of embryos (mice embryos; [3]): 20
8 cell/d2: number of embryos (mice embryos; [4]): 6
Blast/d3: number of embryos (mice embryos; [4]): 34
Blast/d3: portion of the initial number of embryos (mice embryos; [4]): 94.44%
Hatch/d4: number of embryos (mice embryos; [4]): 16
Hatch/d4: portion of the initial number of embryos (mice embryos; [4]): 44.44%
comp/d2: number of embryos (mice embryos; [4]): 30

N[C@@H](COP(=O)(O)O)C(=O)O [PS, phosphoserine]
Cultures with axonal regeneration (%) ([1]; stabilizer alone at 0.05%): 0%
8 cell/d2: number of embryos (mice embryos; [5]): 5
Blast/d3: number of embryos (mice embryos; [5]): 12
Blast/d3: portion of the initial number of embryos (mice embryos; [5]): 92.3%
Hatch/d4: number of embryos (mice embryos; [5]): 10
Hatch/d4: portion of the initial number of embryos (mice embryos; [5]): 76.9%
comp/d2: number of embryos (mice embryos; [5]): 8

O=C([O-])[O-].[Ca+2] [CCC, crystalline calcium carbonate]
Cultures with axonal regeneration (%) ([1]; calcium preparation at Ca2+ 2 mM): 50%
8 cell/d2: number of embryos (mice embryos; [6]): 3
Blast/d3: number of embryos (mice embryos; [6]): 17
Blast/d3: portion of the initial number of embryos (mice embryos; [6]): 100%
Hatch/d4: number of embryos (mice embryos; [6]): 14
Hatch/d4: portion of the initial number of embryos (mice embryos; [6]): 82.35%
comp/d2: number of embryos (mice embryos; [6]): 14
8 cell/d2: number of embryos (mice embryos; [7]): 14
Blast/d3: number of embryos (mice embryos; [7]): 12
Blast/d4: number of embryos (mice embryos; [7]): 5
Hatch/d4: number of embryos (mice embryos; [7]): 15
Hatch/d4: portion of the initial number of embryos (mice embryos; [7]): 62.5%
comp/d2: number of embryos (mice embryos; [7]): 6
degenerative: number of embryos (mice embryos; [7]): 1
early Blast/d3: number of embryos (mice embryos; [7]): 8
muscle fibers after 7 days [2]: fewer, thinner and shorter muscle fibers
early formation of many myotubes, time of cultivation ([2]; dry powder suspended in water): later
elevation of CK compared to mdx group on normal diet only (2M) (mdx mice; by food, diet with 1% elemental calcium (4M: synthetic ACC 5% PS; 3M: synthetic CCC)): not statistically significant
creatinine kinase (CK) in serum (mdx mice; group 3M: by food, diet with 1% elemental calcium): 21,676±14,508 IU/ml

O=C([O-])[O-].[Na+].[Na+] [NaCO3, sodium carbonate]
embryonic development compared to control or to the addition of ACC-PP (mice embryos; Example 17, 1.7 mM in cleavage media): very poor embryonic development
8 cell/d2: number of embryos (mice embryos; [8]): 2
Blast/d3: number of embryos (mice embryos; [8]): 0
Blast/d4: number of embryos (mice embryos; [8]): 0
Hatch/d4: number of embryos (mice embryos; [8]): 0 (0)
Hatch/d4: portion of the initial number of embryos (mice embryos; [8]): 0 (0) %
comp/d2: number of embryos (mice embryos; [8]): 7
degenerative: number of embryos (mice embryos; [8]): 1
early Blast/d3: number of embryos (mice embryos; [8]): 0
8 cell/d2: number of embryos (mice embryos; [9]): 6
Blast/d3: number of embryos (mice embryos; [9]): 2
Blast/d4: number of embryos (mice embryos; [9]): 0
Hatch/d4: number of embryos (mice embryos; [9]): 2
Hatch/d4: portion of the initial number of embryos (mice embryos; [9]): 12.5%
comp/d2: number of embryos (mice embryos; [9]): 8
degenerative: number of embryos (mice embryos; [9]): 2
early Blast/d3: number of embryos (mice embryos; [9]): 14

[Ca+2] [Ca^2+ ions]
increase of forward sperm motility (sperm): up to 20%
